Laboratory results as given in patent publication US20250051277A1, “DELIVERY OF THERAPEUTIC ALKALOID COMPOUNDS” (Sensorium Therapeutics, Inc., priority 2021, published 2025).
Where two headings read alike, the source gives them in different places.

Assays:
[1] = 10 μM
[2] = 10 μM; remark: listed apart in the source
Protocol: 50 μL aliquots of positive controls and test compounds spiked into rat or human plasma (n=2) were added to a pre-warmed plate (37° C.) and shaken at 50 rpm. At each respective time point, the reaction was stopped by adding 500 μL of acetonitrile containing internal standards (100 nM aprozolam, 200 nM caffeine, 100 nM tolbutamide). All samples were vortexed for 10 minutes, followed by centrifugation at 3,220 g for 30 minutes to precipitate proteins. 100 μL of the supernatant is transferred to a new plate. The supernatant will be diluted with ultrapure water according to the LC-MS signal response and peak shape.

[3] = assay type: physicochemical; details: DI water, 25° C., 0.5 mM
[4] = assay type: physicochemical; details: SGF with pepsin, pH 1.5, 37° C., 0.5 mM

Row | Structure (SMILES) | Prodrug (%) remaining, Human Plasma ([1]; 0 h) [%] | Prodrug (%) remaining, Human Plasma ([1]; 10 min) [%] | Prodrug (%) remaining, Human Plasma ([1]; 0.5 h) [%] | Prodrug (%) remaining, Human Plasma ([1]; 1 h) [%] | Prodrug (%) remaining, Human Plasma ([1]; 2 h) [%] | Prodrug (%) remaining, Human Plasma ([1]; 4 h) [%] | Prodrug (%) remaining, Rat Plasma ([2]; 0 h) [%] | Prodrug (%) remaining, Rat Plasma ([2]; 10 min) [%] | Prodrug (%) remaining, Rat Plasma ([2]; 0.5 h) [%] | Prodrug (%) remaining, Rat Plasma ([2]; 1 h) [%] | Prodrug (%) remaining, Rat Plasma ([2]; 2 h) [%] | Prodrug (%) remaining, Rat Plasma ([2]; 4 h) [%] | Condition 2 Conversion (%) ([3]; time 1 min) | Condition 2 Conversion (%) ([3]; time 5 min) | Condition 2 Conversion (%) ([3]; time 30 min) | Condition 2 Conversion (%) ([3]; time 1 h) | Condition 2 Conversion (%) ([3]; time 4 h) | Condition 2 Conversion (%) ([3]; time 24 h) | Condition 1 Conversion (%) ([4]; time 1 min) | Condition 1 Conversion (%) ([4]; time 5 min) | also measured
1 | COc1ccc([C@@]23CCC(OC(=O)c4c(C)cc(C)cc4C)=C[C@@H]2N(C)CC3)cc1OC [Compound 356, (3aS,7aS)-3a-(3,4-dimethoxyphenyl)-1-methyl-2,3,3a,4,5,7a-hexahydro-1H-indol-6-yl2,4,6-trimethylbenzoate] | 100.0 | >99 | >99 | >99 | >99 | >99 | 100.0 | >99 | >99 | >99 | >99 | 95.8 |  |  |  |  |  |  |  |  | 
2 | COc1ccc([C@@]23CCC(=NNc4ccc5ccccc5n4)C[C@@H]2N(C)CC3)cc1OC [Compound 366, N-[[(3aS,7aS)-3a-(3,4-dimethoxyphenyl)-1-methyl-2,3,4,5,7,7a-hexahydroindol-6-ylidene]amino]quinolin-2-amine] |  |  |  |  |  |  |  |  |  |  |  |  | 0 | 0 | 10.11 | 11.33 | 12.6 | 17.4 | 0 | 8.9 | Condition 1 Conversion (%) ([4]; time 30 min): 47.1%; Condition 1 Conversion (%) ([4]; time 1 h): 77.4%; Condition 1 Conversion (%) ([4]; time 4 h): 94.1%; Condition 1 Conversion (%) ([4]; time 24 h): 100%
3 | COc1ccc([C@@]23CCC(=NNCc4cccc(C)c4)C[C@@H]2N(C)CC3)cc1OC [Compound 367, N-[[(3aS,7aS)-3a-(3,4-dimethoxyphenyl)-1-methyl-2,3,4,5,7,7a-hexahydroindol-6-ylidene]amino]-1-(m-tolyl)methanamine] |  |  |  |  |  |  |  |  |  |  |  |  | 5 | 8.3 | 11.5 | 11.92 | 13.32 | 20 | 100 | 100 | Condition 1 Conversion (%) ([4]; time 30 min): 100%; Condition 1 Conversion (%) ([4]; time 1 h): 100%; Condition 1 Conversion (%) ([4]; time 4 h): 100%; Condition 1 Conversion (%) ([4]; time 24 h): 100%
4 | COc1ccc([C@@]23CCC(=NNCc4ccccn4)C[C@@H]2N(C)CC3)cc1OC [Compound 369, (3aS,7aS)-3a-(3,4-dimethoxyphenyl)-1-methyl-6-(2-(pyridin-2-ylmethyl)hydrazineylidene)octahydro-1H-indole] |  |  |  |  |  |  |  |  |  |  |  |  | 0 | 0 | 0 | 0 | 45 | 50 | 30 | 100 | Condition 1 Conversion (%) ([4]; time 30 min): 100%; Condition 1 Conversion (%) ([4]; time 1 h): 100%; Condition 1 Conversion (%) ([4]; time 4 h): 100%; Condition 1 Conversion (%) ([4]; time 24 h): 100%
5 | COc1ccc([C@@]23CCC(=NNCc4cccnc4)C[C@@H]2N(C)CC3)cc1OC [Compound 370, N-[[(3aS,7aS)-3a-(3,4-dimethoxyphenyl)-1-methyl-2,3,4,5,7,7a-hexahydroindol-6-ylidene]amino]-1-(3-pyridyl)methanamine] |  |  |  |  |  |  |  |  |  |  |  |  | 0 | 0 | 0 | 10 | 30 | 70 | 20 | 40 | Condition 1 Conversion (%) ([4]; time 30 min): 100%; Condition 1 Conversion (%) ([4]; time 1 h): 100%; Condition 1 Conversion (%) ([4]; time 4 h): 100%; Condition 1 Conversion (%) ([4]; time 24 h): 100%
6 | CCCCCCCC(=O)OC1=C[C@@H]2N(C)CC[C@]2(c2ccc(OC)c(OC)c2)CC1 [Compound 395, (3aS,7aS)-3a-(3,4-dimethoxyphenyl)-1-methyl-2,3,3a,4,5,7a-hexahydro-1H-indol-6-yl octanoate] | 100.0 | 13.9 | 3.5 | 1.1 | 0.3 | 0.1 | 100.0 | 0.3 | 0.1 | 0.1 | 0.1 | 0.1 |  |  |  |  |  |  |  |  | 
7 | COc1ccc([C@@]23CCC(OC(=O)CCN)=C[C@@H]2N(C)CC3)cc1OC [Compound 397, (3aS,7aS)-3a-(3,4-dimethoxyphenyl)-1-methyl-2,3,3a,4,5,7a-hexahydro-1H-indol-6-yl3-aminopropanoate] | 100.0 | 2.2 | 0.5 | 0.1 | 0.2 | 0.0 | 100.0 | 10.5 | 0.5 | 0.1 | 0.1 | 0.1 |  |  |  |  |  |  |  |  | 
8 | CCCC(CC)CC(=O)OC1=C[C@@H]2N(C)CC[C@]2(c2ccc(OC)c(OC)c2)CC1 (stereo partly drawn) [Compound 398, (3aS,7aS)-3a-(3,4-dimethoxyphenyl)-1-methyl-2,3,3a,4,5,7a-hexahydro-1H-indol-6-yl3-ethylhexanoate] | 100.0 | 96.4 | 85.0 | 72.4 | 51.6 | 25.5 | 100.0 | 2.8 | 0.7 | 0.1 | 0.0 | 0.0 |  |  |  |  |  |  |  |  | 
9 | COc1ccc([C@@]23CCC(OC(=O)CCC(C)C)=C[C@@H]2N(C)CC3)cc1OC [Compound 399, (3aS,7aS)-3a-(3,4-dimethoxyphenyl)-1-methyl-2,3,3a,4,5,7a-hexahydro-1H-indol-6-yl4-methylpentanoate] | 100.0 | 5.6 | 1.1 | 0.5 | 0.3 | 0.2 | 100.0 | 0.0 | 0.0 | 0.0 | 0.0 | 0.0 |  |  |  |  |  |  |  |  | 
10 | CCCCCC(C)C(=O)OC1=C[C@@H]2N(C)CC[C@]2(c2ccc(OC)c(OC)c2)CC1 (stereo partly drawn) [Compound 400, (3aS,7aS)-3a-(3,4-dimethoxyphenyl)-1-methyl-2,3,3a,4,5,7a-hexahydro-1H-indol-6-yl2-methylheptanoate] | 100.0 | 34.7 | 11.6 | 5.2 | 2.3 | 1.9 | 100.0 | 12.6 | 0.6 | 0.1 | 0.1 | 0.0 |  |  |  |  |  |  |  |  | 
11 | CCCCC(CC)C(=O)OC1=C[C@@H]2N(C)CC[C@]2(c2ccc(OC)c(OC)c2)CC1 (stereo partly drawn) [Compound 401, (3aS,7aS)-3a-(3,4-dimethoxyphenyl)-1-methyl-2,3,3a,4,5,7a-hexahydro-1H-indol-6-yl2-ethylhexanoate] | 100.0 | 95.9 | >99 | 96.6 | 94.4 | 93.4 | 100.0 | 84.5 | 55.8 | 33.8 | 16.3 | 3.3 |  |  |  |  |  |  |  |  | 
12 | CCCC(C)C(=O)OC1=C[C@@H]2N(C)CC[C@]2(c2ccc(OC)c(OC)c2)CC1 (stereo partly drawn) [Compound 402, (3aS,7aS)-3a-(3,4-dimethoxyphenyl)-1-methyl-2,3,3a,4,5,7a-hexahydro-1H-indol-6-yl2-methylpentanoate] | 100.0 | 11.3 | 2.9 | 2.1 | 1.6 | 1.1 | 100.0 | 3.5 | 0.1 | 0.0 | 0.0 | 0.0 |  |  |  |  |  |  |  |  | 
